Laboratory results reported in ChEMBL document CHEMBL3621091, “Optimisation of a triazolopyridine based histone demethylase inhibitor yields a potent and selective KDM2A (FBXL11) inhibitor” (Medchemcomm, 2014).

Key:
Assay type in all cases: physicochemical
Conditions in all cases: read-out: Peff
[1] = Membrane permeability of the compound at pH 7.4 by PAMPA
[2] = Membrane permeability of the compound at pH 5 by PAMPA
[3] = Membrane permeability of the compound at pH 6.2 by PAMPA

O=C(O)c1ccnc(-c2cn([C@@H]3CCCN(C(=O)c4ccccc4)C3)nn2)c1
Papp [1]: 0.69 ×10⁻⁶ cm/s
Papp [2]: 1.9 ×10⁻⁶ cm/s
Papp [3]: 0.41 ×10⁻⁶ cm/s

COC(=O)c1ccnc(-c2cn([C@@H]3CCCN(C(=O)c4ccccc4)C3)nn2)c1
Papp [1]: 52 ×10⁻⁶ cm/s
Papp [2]: 56 ×10⁻⁶ cm/s
Papp [3]: 45 ×10⁻⁶ cm/s
